According to paper PMC9603770, “Broad-Spectrum Inhibitors against Class A, B, and C Type β-Lactamases to Block the Hydrolysis against Antibiotics: Kinetics and Structural Characterization” (Microbiology Spectrum, 2022):

Legend:
[1] = tested on: β-lactamase-producing clones; test: MIC fold reduction of meropenem in combination with inhibitor (discussion summary); type: cell-based, Escherichia coli
Excerpt: The combination of D2573 with cephalosporins (cefotaxime plus D2573 and cefoxitin plus D2573) or the combination of D2148 with cephalosporins (cefotaxime plus D2148 and cefoxitin plus D2148) or the combination of D63 with cephalosporins (cefotaxime plus D63 and cefoxitin plus D63) had […] MICs than the control. […] The MIC and MBC data are in harmony with in silico data which concluded that three potential inhibitors, D2573, D2148, and D63, are potential candidates against broad-spectrum β-lactamase-producing bacterial strains.
The MICs of various antibiotics in combination with selected inhibitors were determined on DH5α cells and clinical strains (AK-10, AK-12,AK-18, NP-6, AK-67, AK-66) using the microdilution method; Clinical and Laboratory Standards Institute (CLSI) guidelines were used to interpret the results ([37], [38]). In a series of 2-fold dilutions, E. coli cells were given escalating doses of antibiotics from 0 to 512 μg/mL.

Amp-C = target: T1, Amp-C (Escherichia coli, UniProt P00811); test: IC50, nitrocefin hydrolysis; type: biochemical
T1 construct: made in house; host or cells: E. coli (DH5 and BL21(DE3) named; pET-28a)
Procedure: (§1) The IC50 values of all the proteins were calculated to determine the efficacy of each inhibitor. The IC50 values were calculated for the proteins NDM-1, Amp-C, KPC-2, CTX-M-15, SHV-1, and TEM-1 with each of its inhibitors (D63, D2148, and D2573) to compare their efficacies at a fixed concentration 100 μΜ of nitrocefin (Table 7).
(§2) Overexpression of proteins was done by adding 0.5 mM IPTG (isopropyl-β-D-thiogalactopyranoside), and purification of the NDM-1, SHV-1, TEM-1, CTX-M-15, KPC-2, and Amp-C recombinant protein was performed with an Ni-NTA affinity column. […] The final concentration of the protein was estimated with a NanoDrop instrument.
(§3) The direct competition between the β-lactamase substrate, nitrocefin, and their inhibitors were used to determine the IC50 and Ki values. Using a Shimadzu UV-VIS spectrophotometer UV-1800, variable quantities of inhibitor D63, D2148, and D2573 (0 to 3 μM), fixed concentrations of purified proteins (1 nM), and nitrocefin substrate (100 μM) were used in a reaction at 486 nm. […] The IC50 value is the inhibitor concentration that inhibits enzyme hydrolytic activity by 50% (50% inhibitory concentration).

CTX-M-15 = target: T2, CTX-M-15 (Escherichia coli, UniProt Q9EXV5); test: IC50, nitrocefin hydrolysis; type: biochemical; conditions: 100 μΜ nitrocefin
T2 construct: made in house; host or cells: E. coli (DH5 and BL21(DE3) named)
Procedure: as §1, §2, §3

KPC-2 [2] = target: T3, KPC-2 (Klebsiella pneumoniae, UniProt Q9F663); test: IC50, nitrocefin hydrolysis; type: biochemical; conditions: 100 μΜ nitrocefin
T3 construct: made in house; host or cells: E. coli (DH5 and BL21(DE3) named; pET-28a)
Procedure: as §1, §2, §3

NDM-1 [3] = target: T4, NDM-1 (Klebsiella pneumoniae, UniProt C7C422); test: IC50, nitrocefin hydrolysis; type: biochemical; conditions: 100 μΜ nitrocefin
T4 construct: made in house; host or cells: E. coli (DH5 and BL21(DE3) named)
Procedure: as §1, §2, §3

SHV-1 [4] = target: T5, SHV-1 (Klebsiella pneumoniae, UniProt P0AD64); test: IC50, nitrocefin hydrolysis; type: biochemical
T5 construct: made in house; host or cells: E. coli (DH5 and BL21(DE3) named; pET-28a)
Procedure: as §1, §2, §3

TEM-1 [5] = target: T6, TEM-1 (Escherichia coli, UniProt P62593); test: IC50, nitrocefin hydrolysis; type: biochemical; conditions: 100 μΜ nitrocefin
T6 construct: made in house; host or cells: E. coli (DH5 and BL21(DE3) named; pET-28a)
Procedure: as §1, §2, §3

KPC-2 [6] = target: T3, KPC-2; test: Steady-state kinetics of antibiotic hydrolysis with inhibitor; type: biochemical; conditions: inhibitor concentration as per IC50
Procedure: (§4) The enzyme kinetics parameters (Km, and kcat) for all six proteins/enzymes in combination with different antibiotics (cefotaxime, imipenem, and meropenem), were calculated. The concentration of inhibitors, D63, D2148, and D2573, was as per the IC50 value (Fig. 5); the kinetic parameters are listed in Table 8.
(§5) The steady-state kinetics of all six proteins were determined using the antibiotics:imipenem (Δε295 = −11,500 M^−1 cm^−1), meropenem (Δε297 = −10,940 M^−1 cm^−1), and cefotaxime (Δε264 = −27,250 M^−1 cm^−1). In this study, the D63, D2148, and D2573 inhibitors were tested. Hydrolysis of β-lactam antibiotics was detected by monitoring the variation in absorbance due to cleavage of the β-lactam ring in 50 mM, pH 7.0, phosphate buffer ([40], [41]). For hydrolysis of substrate (cefotaxime, imipenem, and meropenem) kinetics parameters, Km and kcat were calculated by using Michaelis Menten equations (equations 2 and 3). (2) V =Vmax [S]/Km + [S] (3) kcat = Vmax/E where E and S are the enzyme and substrate concentration, Km is the Michaelis-Mentent constant, kcat is the turnover number, and V and Vmax are the initial and maximum velocity of the hydrolysis, respectively.

NDM-1 [7] = target: T4, NDM-1; test: as above; type: biochemical; conditions: inhibitor concentration as per IC50
Procedure: as §4, §5

SHV-1 [8] = target: T5, SHV-1; test: as above; type: biochemical; conditions: inhibitor concentration as per IC50
Procedure: as §4, §5

TEM-1 [9] = target: T6, TEM-1; test: as above; type: biochemical; conditions: inhibitor concentration as per IC50
Procedure: as §4, §5

T2 sequence (Q9EXV5 29-291, species assumed): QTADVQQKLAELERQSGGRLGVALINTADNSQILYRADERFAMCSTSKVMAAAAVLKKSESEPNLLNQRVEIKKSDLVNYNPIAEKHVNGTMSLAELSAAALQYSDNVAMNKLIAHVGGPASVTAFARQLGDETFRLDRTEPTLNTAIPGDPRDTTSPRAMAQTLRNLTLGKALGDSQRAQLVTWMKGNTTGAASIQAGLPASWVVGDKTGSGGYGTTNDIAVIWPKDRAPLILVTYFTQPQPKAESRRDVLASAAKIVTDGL
T3 sequence (Q9F663 25-293, looked up, species assumed): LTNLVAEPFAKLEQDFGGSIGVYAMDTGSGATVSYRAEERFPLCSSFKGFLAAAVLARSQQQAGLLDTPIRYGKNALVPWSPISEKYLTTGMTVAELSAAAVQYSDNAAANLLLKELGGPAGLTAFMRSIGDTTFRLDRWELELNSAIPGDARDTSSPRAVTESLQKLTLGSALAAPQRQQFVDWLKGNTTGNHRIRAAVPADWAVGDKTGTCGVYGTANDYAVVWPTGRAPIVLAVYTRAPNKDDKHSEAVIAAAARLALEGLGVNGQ
T1 sequence (P00811 20-377): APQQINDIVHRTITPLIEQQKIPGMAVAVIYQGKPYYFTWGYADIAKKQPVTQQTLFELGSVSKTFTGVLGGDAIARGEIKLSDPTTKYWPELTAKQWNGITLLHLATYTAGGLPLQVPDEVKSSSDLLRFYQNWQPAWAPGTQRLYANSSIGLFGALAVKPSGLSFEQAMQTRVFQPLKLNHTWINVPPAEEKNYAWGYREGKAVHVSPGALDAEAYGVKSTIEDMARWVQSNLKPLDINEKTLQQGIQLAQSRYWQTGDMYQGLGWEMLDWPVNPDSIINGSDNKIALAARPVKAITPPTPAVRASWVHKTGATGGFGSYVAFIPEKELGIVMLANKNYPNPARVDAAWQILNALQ
T5 sequence (P0AD64 22-286): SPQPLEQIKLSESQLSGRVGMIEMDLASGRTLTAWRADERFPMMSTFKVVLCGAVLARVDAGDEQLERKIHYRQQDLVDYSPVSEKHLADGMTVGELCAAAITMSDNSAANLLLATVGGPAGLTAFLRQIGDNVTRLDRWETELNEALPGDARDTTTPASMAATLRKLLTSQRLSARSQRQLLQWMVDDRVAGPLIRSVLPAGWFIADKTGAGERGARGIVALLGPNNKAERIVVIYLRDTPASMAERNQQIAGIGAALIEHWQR
T4 sequence (C7C422 29-270, looked up, species assumed): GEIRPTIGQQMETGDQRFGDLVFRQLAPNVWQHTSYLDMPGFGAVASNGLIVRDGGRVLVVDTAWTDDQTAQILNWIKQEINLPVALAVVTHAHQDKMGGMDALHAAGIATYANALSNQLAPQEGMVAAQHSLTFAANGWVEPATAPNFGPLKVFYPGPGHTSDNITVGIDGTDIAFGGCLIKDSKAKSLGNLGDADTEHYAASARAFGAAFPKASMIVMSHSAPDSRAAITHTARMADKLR
T6 sequence (P62593 24-286 limits assumed): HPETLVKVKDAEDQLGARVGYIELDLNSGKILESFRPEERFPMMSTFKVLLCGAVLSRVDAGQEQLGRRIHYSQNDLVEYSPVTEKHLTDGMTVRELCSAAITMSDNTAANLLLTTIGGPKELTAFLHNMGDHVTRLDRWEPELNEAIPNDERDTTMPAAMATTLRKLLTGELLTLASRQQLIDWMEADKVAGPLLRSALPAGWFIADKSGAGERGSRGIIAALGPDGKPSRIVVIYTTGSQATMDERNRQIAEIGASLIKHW

Row | SMILES | IC50 (Amp-C) | IC50 (CTX-M-15) | IC50 (KPC-2 [2]) | IC50 (NDM-1 [3]) | IC50 (SHV-1 [4]) | IC50 (TEM-1 [5]) | Km or Ki (KPC-2 [6]; cefotaxime) | kcat (KPC-2 [6]; cefotaxime) | Km or Ki (KPC-2 [6]; imipenem) | kcat (KPC-2 [6]; imipenem) | Km or Ki (KPC-2 [6]; meropenem) | kcat (KPC-2 [6]; meropenem) | Km or Ki (NDM-1 [7]; cefotaxime) | kcat (NDM-1 [7]; cefotaxime) | Km or Ki (NDM-1 [7]; imipenem) | kcat (NDM-1 [7]; imipenem) | Km or Ki (NDM-1 [7]; meropenem) | kcat (NDM-1 [7]; meropenem) | Km or Ki (SHV-1 [8]; cefotaxime) | kcat (SHV-1 [8]; cefotaxime) | other results
1 | O=C(CN1C(=O)c2ccccc2S1(=O)=O)c1ccc(O)c(O)c1 [D63, 2-[2-(3,4-dihydroxyphenyl)-2-oxoethyl]-1H-1,2-benzisothiazole-1,1,3(2H)-trione] | 0.609 nM | 0.779 nM | 0.695 nM | 0.733 nM | 0.649 nM | 0.726 nM | 713 μΜ | 0.384 S^−1 | 489.1 μΜ | 0.39 S^−1 | 511.7 μΜ | 0.45 S^−1 | 410.8 μΜ | 1.833 S^−1 | 258.7 μΜ | 18.29 S^−1 | 1,052 μΜ | 9.282 S^−1 | 1,375 μΜ | 1.621 S^−1 | Reduction of MIC of meropenem in combination with inhibitor ([1]; class A β-lactamases): 2 fold; Reduction of MIC of meropenem in combination with inhibitor ([1]; class B and C β-lactamases): 4 fold; Km or Ki (SHV-1 [8]; imipenem): 851 μΜ; kcat (SHV-1 [8]; imipenem): 1.525 S^−1; Km or Ki (SHV-1 [8]; meropenem): 2,881 μΜ; kcat (SHV-1 [8]; meropenem): 1.928 S^−1; Km or Ki (TEM-1 [9]; cefotaxime): 1,353 μΜ; kcat (TEM-1 [9]; cefotaxime): 1.051 S^−1; Km or Ki (TEM-1 [9]; imipenem): 673.1 μΜ; kcat (TEM-1 [9]; imipenem): 1.194 S^−1; Km or Ki (TEM-1 [9]; meropenem): 253.5 μΜ; kcat (TEM-1 [9]; meropenem): 0.6169 S^−1
2 | O=C(c1ccccc1)C1CCN(C(=O)CN2C(=O)c3ccccc3C2=O)CC1 [D2148, 2-[2-(4-benzoylpiperidino) -2-oxoethyl]-1H-isoindole-1,3(2H)-dione] | 0.714 nM | 0.638 nM | 0.744 nM | 0.632 nM | 0.587 nM | 0.449 nM | 358.7 μΜ | 3.293 S^−1 | 301.8 μΜ | 3.44 S^−1 | 491 μΜ | 2.47 S^−1 | 1,939 μΜ | 15.88 S^−1 | 995.4 μΜ | 20.6 S^−1 | 986.4 μΜ | 9.201 S^−1 | 626.2 μΜ | 6.751 S^−1 | Reduction of MIC of meropenem in combination with inhibitor ([1]; class A β-lactamases): 2 fold; Reduction of MIC of meropenem in combination with inhibitor ([1]; class B and C β-lactamases): 4 fold; Km or Ki (SHV-1 [8]; imipenem): 618.4 μΜ; kcat (SHV-1 [8]; imipenem): 5.535 S^−1; Km or Ki (SHV-1 [8]; meropenem): 1,376 μΜ; kcat (SHV-1 [8]; meropenem): 6.436 S^−1; Km or Ki (TEM-1 [9]; cefotaxime): 757.7 μΜ; kcat (TEM-1 [9]; cefotaxime): 6.332 S^−1; Km or Ki (TEM-1 [9]; imipenem): 689.7 μΜ; kcat (TEM-1 [9]; imipenem): 0.9853 S^−1; Km or Ki (TEM-1 [9]; meropenem): 7,537 μΜ; kcat (TEM-1 [9]; meropenem): 43.13 S^−1
3 | O=C(O)c1ccccc1C(=O)N1CCN(c2nc(-c3ccccc3)ns2)CC1 [D2573, 2-{[4-(3-phenyl-1,2,4-thiadiazol-5-yl)piperazino]carbonyl}benzoic acid] | 0.655 nM | 0.731 nM | 0.667 nM | 0.624 nM | 0.655 nM | 0.634 nM | 549.1 μΜ | 0.454 S^−1 | 878.8 μΜ | 0.419 S^−1 | 2,786 μΜ | 1.02 S^−1 | 8,756 μΜ | 4.921 S^−1 | 301.3 μΜ | 3.875 S^−1 | 756.8 μΜ | 14.59 S^−1 | 608 μΜ | 0.8431 S^−1 | Reduction of MIC of meropenem in combination with inhibitor ([1]; all selected β-lactamase enzymes): 2 fold; Km or Ki (SHV-1 [8]; imipenem): 1,138 μΜ; kcat (SHV-1 [8]; imipenem): 0.958 S^−1; Km or Ki (SHV-1 [8]; meropenem): 979 μΜ; kcat (SHV-1 [8]; meropenem): 1.232 S^−1; Km or Ki (TEM-1 [9]; cefotaxime): 905.2 μΜ; kcat (TEM-1 [9]; cefotaxime): 1.056 S^−1; Km or Ki (TEM-1 [9]; imipenem): 2,665 μΜ; kcat (TEM-1 [9]; imipenem): 1.454 S^−1; Km or Ki (TEM-1 [9]; meropenem): 2,129 μΜ; kcat (TEM-1 [9]; meropenem): 1.563 S^−1
